Measurements: a melting point compilation (Tetko et al.; mined from patent text by program, amines drawn as free bases though some values may be those of a salt)

For `O=C(O)/C=C/c1ccc(OCCN2CCCC2)cc1`, the melting point was 183 °C.
In the case of `CCc1nc(/C=C/c2cn(-c3ccccc3)nc2OCc2ccc(OCc3nc(/C=C/C(=O)O)oc3C)c(OC)c2)cs1`, the melting point is reported as 125 to 126 °C.
Work on `CCOC(=O)NCCc1cccc(C(=O)C=CN(C)C)c1` yielded a melting point of 45 to 50 °C.
`CCNC(=O)c1sc(N2CCN(Cc3ccc(OC(F)(F)F)cc3)C2=O)nc1C` gave a melting point of 139 to 140 °C.
`CCNc1cc(C)nc(Oc2c(C)cc(C)cc2C)c1C` gave a melting point of 115 to 116 °C.
`CC(C)=C(C)CCC(C)C1CCC2(C)C3CCC4C(C)(C)C(O)CCC45CC35CCC12C` (stereo not given) showed a melting point of 165 to 166 °C.
Molecule `COc1cccc(Oc2c(NS(=O)(=O)c3ccc(C(C)(C)C)cc3)ncnc2OCCCO)c1` has a melting point of 113 to 114 °C.
`CCCCc1nn(-c2cc([N+](=O)[O-])ccc2C(F)(F)F)c(=O)n1Cc1ccc(-c2ccccc2S(=O)(=O)NC(C)(C)C)cc1` showed a melting point of 135 to 137 °C.
Molecule `CC[C@H](Cn1cnnn1)n1cnc2cc3c(=O)n([C@H](C)Cn4ncnn4)nnc3cc2c1=O` has a melting point of 198 to 200 °C.
Molecule `COC(=O)c1cc(OCCc2nc(-c3ccccc3)oc2C)no1` has a melting point of 90 to 91 °C.
For `Cn1nc(-c2ccccc2)c2c(=O)[nH]c(N)nc21`, the melting point was greater than 300 °C.
In the case of `CN1CCC(=C2c3cc(Br)ccc3C=Cn3cccc32)CC1`, the melting point is reported as 138 to 142 °C.
Work on `CCCc1nn(C)c2c(=O)[nH]c(Cc3ccc(-n4cnnc4)cc3)nc12` yielded a melting point of 297 to 300 °C.
Work on `CC(C)(C)OC(=O)N1CCN(S(=O)(=O)c2ccc(S(=O)(=O)c3ccc4cc(Br)ccc4c3)cc2)CC1` yielded a melting point of 213 to 215 °C.
`S=c1cc(N2CCOCC2)ss1` showed a melting point of 60 °C.
In the case of `CC(C)n1cc(-c2nc(C(N)=O)c(N)nc2-c2ccccc2F)ccc1=O`, the melting point is reported as 252 °C.
Work on `CCC(CC)CC(C)(NC(CO)c1ccccc1)C(=O)O` (stereo not given) yielded a melting point of 149 °C.
Molecule `C=CCn1c(=S)n(C2OC(CO)C(O)C2O)c2nc(N)[nH]c(=O)c21` (stereo not given) has a melting point greater than 230 °C.
`CCOCCOc1cc(C)c(-c2cccc(COc3ccc(C=CC(=O)OC)cc3)c2)c(C)c1` showed a melting point of 69 °C.
With `NC(=O)COc1ncc(Cl)c(N)c1Cl` the melting point was 192 to 193 °C.
For `CCOCc1nc2c(N)nc(C)c(C)c2n1CCNC(=O)Nc1ccccc1`, the melting point was 110 °C.
`COc1cn(-c2cc(F)c(N3CCOCC3)cc2F)nc(-c2ccnn2-c2ccccc2)c1=O` showed a melting point of 211 to 212 °C.
Work on `Nc1nc2cc(Cl)c(Cl)cc2n1C1OC(CO)C(O)C1O` (stereo not given) yielded a melting point of 145 °C.
Work on `CC(C)c1nc(COCc2ccccc2)n(Cc2ccccc2)c1Sc1cccc([N+](=O)[O-])c1` yielded a melting point of 152 to 155 °C.
With `COc1cc(C(=O)CBr)cc(Cl)c1OC` the melting point was 76.5 to 78 °C.
Molecule `CN(C)C(=O)c1cc(CN2C(=O)C3(COc4cc5c(cc43)OCO5)c3ccccc32)oc1C(F)(F)F` (stereo not given) has a melting point of 96 to 98 °C.
For `Cn1nc(SC2c3cc(C#N)ccc3CC(C)(C)C2O)ccc1=O` (stereo not given), the melting point was 149 to 151 °C.
With `COC(=O)C(NCc1cn(Cc2ccccc2)c2ccccc12)c1ccccc1` (racemic) the melting point was 72 to 75 °C.
With `CCCc1ccc2nc(C#N)c(S(N)(=O)=O)n2n1` the melting point was 237 to 244 °C.
Molecule `COc1ccc(S(=O)(=O)N2c3ccc(Cl)cc3C(O)(c3ccccc3Cl)C2C(=O)N2CCN(C)CC2)cc1OC` (stereo not given) has a melting point of 120 °C.
Molecule `Nc1ccc(S(=O)(=O)c2cc(N)cc(Br)n2)cc1` has a melting point of 202 to 204 °C.
Work on `COC(=O)CCCc1cc2c(Cl)c(C#N)cnc2s1` yielded a melting point of 55 to 57 °C.
`CCCCOc1ccc(CCNc2ncnc(CC)c2C(=O)O)cc1` showed a melting point of 208 to 211 °C.
`OC1(c2ccc3c(c2)OCO3)CCC2(CC1)OCCO2` gave a melting point of 95 to 96 °C.
In the case of `CC(C)Cn1c(=O)n(C)c(=O)c2c(Br)c(C(=O)c3nc4ccccc4n3C)sc21`, the melting point is reported as 258 °C.
`Cc1c(N[C@@H](c2nnc(-c3ccc(F)c(O)c3)o2)[C@H](C)O)ccc(C#N)c1Cl` showed a melting point of 103 to 108 °C.
For `CCCCCc1cc2c(nc(O)n2CCCNC(=O)NC2CCCCC2)c(N)n1`, the melting point was 202 to 204 °C.
Molecule `CCOC(=O)c1cnc2ccc(C(=O)c3ccc(Cl)cc3)cc2c1O` has a melting point greater than 300 °C.
`CCCCCCOc1c(OC)cc(N)c2ncccc12` showed a melting point of 168 to 171 °C.
`CCCSc1ncc(CCCC(=O)O)n1Cc1ccccc1Cl` showed a melting point of 98 to 99 °C.
With `N#Cc1ccc(C=C2CCNC2=O)cc1` the melting point was 260 °C.
`COc1ccc2ccc(N3C(=O)c4ccccc4C3OC(=O)CCCNC(C)=O)nc2n1` (stereo not given) gave a melting point of 190 °C.
With `CNC(=S)C1(c2cnc3ccccc3c2)CCCCC1=CC=O` (stereo not given) the melting point was 149 to 151 °C.
In the case of `COc1cc(C(=O)O)c2c(c1OC)OC(C1CC1)C=C2` (stereo not given), the melting point is reported as 124 to 126 °C.
For `Cc1nc2c(cc1CCCO)c(=O)c(C(=O)NCc1ccc(Cl)cc1)cn2C`, the melting point was 176 to 177 °C.
With `CC(C)(CN)c1ccc2nc(-c3ccncc3)[nH]c2c1` the melting point was 199 to 202 °C.
For `O=NN1CCN(Cc2c[nH]c3ccccc23)CC1`, the melting point was 116 to 118 °C.
`CCCc1nc2c(N)nc3ccccc3c2n1O` gave a melting point of 232 to 235 °C.
`Cc1[nH]c(C=O)c(C)c1CCC(=O)O` gave a melting point of 145 to 147 °C.
`COc1cc(C)c(C(=O)CCCCCCCCCCCCCCCCCCCCC(=O)O)c(O)c1OC` showed a melting point of 103 to 150 °C.
For `Cc1cc(N(C)CC(=O)N2CCN(Cc3ccccc3)CC2)ccc1Oc1ccc(NC(=O)c2ccc(C(F)(F)F)cc2)cn1`, the melting point was 112 to 113 °C.
For `CS(=O)(=O)Nc1ccc(N2CCN(c3cnccc3N)CC2)cc1`, the melting point was 246 to 248 °C.
With `Cc1oc(-c2ccccc2)nc1COc1ccc(Cn2cc(CC(=O)O)c(-c3cccs3)n2)cc1` the melting point was 98 to 99 °C.
`CC(C)(Oc1ccc(NC(=O)Nc2ccc(Cl)c(Cl)c2)cc1)C(=O)O` showed a melting point of 183 to 184 °C.
For `O=C1COc2ccc(C3=Nc4ccccc4SC3c3ccccn3)cc2N1` (stereo not given), the melting point was 168 to 170 °C.
With `Cc1c(-c2ccccc2)sc2c(Cl)c(Cl)c(OCC(=O)O)cc12` the melting point was 232 to 233 °C.
In the case of `O=C(N[C@H]1CC[C@H](CCN2CCN(c3nccc4c3OCC4)CC2)CC1)c1ccc(-n2cccn2)cc1`, the melting point is reported as 226 °C.
`COc1ccc(C(=O)Nc2ccc(C(C)(C)C#N)c(-c3cncnc3)c2)cc1OC` gave a melting point of 198 to 200 °C.
In the case of `N#CNC=Nc1ccc(-c2cc[nH]n2)cc1`, the melting point is reported as 223 to 224 °C.
`Cc1ccc(S(=O)(=O)C2=C(C(=O)OCC(C)C)C(=O)C=C(C(=O)OCC(C)C)C2=O)cc1` gave a melting point of 112 to 114 °C.
`O=C(NCCO)c1cc(-c2cccc3cc(Cc4cccc(C(F)(F)F)c4)sc23)ncn1` gave a melting point of 46 to 47 °C.
`O=C(Nc1ccc(-n2nc(C(F)(F)F)cc2C(F)(F)F)cc1)c1cccs1` showed a melting point greater than 230 °C.
`CCOP(=O)(CNC(=O)OC(C)(C)C)CNC(=O)OC(C)(C)C` gave a melting point of 118 to 120 °C.
In the case of `C[C@H](NC(=O)CCCCc1ccccc1)C(=O)N[C@H](CCC(=O)O)C(=O)O`, the melting point is reported as 135 to 140 °C.
With `CC(=O)OC1CCC2(C)C(=CC(=O)C3C2CCC2(C)C(C(C)CCCC(C)C)CCC32)C1` (stereo not given) the melting point was 151 to 154 °C.
In the case of `O=C1c2ccccc2C(=O)N1[C@@H]1C[C@H](O)[C@@H](O)[C@H]1O` (racemic), the melting point is reported as 175 to 176 °C.
For `OCC1OC(n2c(SCc3ccccc3)nc3cc(Cl)c(Cl)cc32)C(O)C1O` (stereo not given), the melting point was 196 to 198 °C.
`CC12CCC3c4ccc(C(=O)O)cc4CCC3C1CCC2C(=O)CCc1ccccc1` (stereo not given) gave a melting point of 181 to 183 °C.
With `CC(C)(C)c1ccc(-c2nc3ccc([N+](=O)[O-])cc3c(=O)o2)cc1` the melting point was 159 to 161 °C.
In the case of `CC1(C)Oc2ccc(C#N)cc2[C@@H](NC(=O)c2ccc(Cl)cc2)[C@@H]1O` (relative stereo), the melting point is reported as 226 to 229 °C.
For `N#Cc1c(N2CCCC2)nsc1N`, the melting point was 198 °C.
`CCCNC(=O)Nc1ccc(-c2cn3c(n2)C(OC2CCN(C)CC2)c2ccccc2CC3)cc1` (stereo not given) gave a melting point of 130 °C.
In the case of `CN(C)C1(c2ccccc2)CC=C(c2cn(S(=O)(=O)c3ccccc3)c3ccccc23)CC1` (stereo not given), the melting point is reported as 165 to 167 °C.
For `CCCCCCCCCCCCn1nnc(Nc2ccccc2)n1`, the melting point was 58 to 61 °C.
In the case of `COC(=O)CCCc1cc2nc(C(F)(F)F)ccc2n1S(=O)(=O)c1ccccc1`, the melting point is reported as 95 °C.
Molecule `CCOC(=O)NC(=O)c1c(Cl)ccc2c(C(F)(F)F)c(OC)ccc12` has a melting point of 169 to 171 °C.
With `CCc1ccc(Nc2ncc(Cc3ccc(O)nc3)c3ncccc23)cc1Br` the melting point was 262 to 265 °C.
In the case of `CC(=O)OC1CSC(Oc2cncc(-c3c(C)nn(C)c3C)c2)C(OC(C)=O)C1OC(C)=O` (stereo not given), the melting point is reported as 166 °C.
Work on `CSc1c(C=NO)c(=O)n(C)c(=O)n1C` yielded a melting point of 165 °C.
With `Cc1c(-c2ccccc2)c2cc(Cl)cc3c2n1CC3` the melting point was 202 to 204 °C.
Work on `COc1ccc2c(c1)C(=O)C(C)(C)CC2c1ccc(Cl)cc1` (stereo not given) yielded a melting point of 135 to 138 °C.
Molecule `N#Cc1cc(C#N)cc(Oc2c(C3CC3)n[nH]c2C2CC2)c1` has a melting point of 168 to 170 °C.
`O=C(Oc1ccc2c(OC(=O)c3ccc(O)c(O)c3)c3cc(OC(=O)c4ccc(O)c(O)c4)ccc3cc2c1)c1ccc(O)c(O)c1` showed a melting point of 233 °C.
With `CC(C)OC(=O)COc1ccc(CCNS(=O)(=O)c2ccccc2)cc1` the melting point was 56 to 57 °C.
In the case of `CC(=O)c1ccc2c(c1)S(=O)(=O)c1cc(C(C)=O)ccc1O2`, the melting point is reported as 219 to 220 °C.
For `CCOc1cc(C(=O)NC2CC(C)(C)NC(C)(C)C2)ccc1-c1nc2cc(Cl)c(Cl)cc2[nH]1`, the melting point was greater than 280 °C.
`COc1ccc(Cn2c(=O)c3cccnc3n(CCCCBr)c2=O)cc1` gave a melting point of 80 to 82 °C.
In the case of `CCOC(=O)c1ncc2[nH]c3ccc(Oc4ccc(Br)cn4)cc3c2c1COC`, the melting point is reported as 210 to 212 °C.
In the case of `COc1ccc(C2(O)OC(=O)C(c3cc(C)c4nsnc4c3)=C2Cc2cc(OC)c(OC3CCCCC3)c(OC)c2)cc1F` (stereo not given), the melting point is reported as 163 to 164 °C.
Molecule `COc1ccc2[nH]c(C(=O)N[C@H]3CCN(C(=O)c4cc(Cl)cc(Cl)c4)[C@H](Cc4ccccc4)C3)cc2c1` (relative stereo) has a melting point of 251 °C.
With `O=C1Nc2ccccc2C1CCCCN1CCN(c2ccc(Cl)c(Cl)c2)CC1` (stereo not given) the melting point was 112 to 114 °C.
With `COc1ccc2c(c1)CCC(=CO)C2=O` the melting point was 66 to 68 °C.
Molecule `CNC(=O)C(=NOC)c1ccccc1COc1ncc(Br)cc1C` has a melting point of 115 to 116 °C.
Molecule `Cc1nc2c3c(c(C(=O)N(C)C)cc2n1C)CCC1(Cc2ccccc2C1)N3` has a melting point of 178 to 179 °C.
Molecule `Cc1nnc(C(CCN2CC3CC4CC(C3)CC2C4)(c2ccccc2)c2ccccc2)o1` has a melting point of 120 to 121 °C.
